From ChEMBL document CHEMBL1909046, “DrugMatrix in vitro pharmacology data”

Tests used:
[1] = target: C-C chemokine receptor type 2 (Homo sapiens, UniProt P41597); format: cell membranes, CHO-K1, Membrane; details: cho-k1; further: in other assays of this panel Not Active means under 50% inhibition at 10 µM
D(3) dopamine receptor = D(3) dopamine receptor (Homo sapiens, UniProt P35462); experiment: DRUGMATRIX: Dopamine D3 radioligand binding (ligand: [3H] Spiperone); format: cell membranes, CHO, Membrane
Chain of D(3) dopamine receptor (P35462 whole entry): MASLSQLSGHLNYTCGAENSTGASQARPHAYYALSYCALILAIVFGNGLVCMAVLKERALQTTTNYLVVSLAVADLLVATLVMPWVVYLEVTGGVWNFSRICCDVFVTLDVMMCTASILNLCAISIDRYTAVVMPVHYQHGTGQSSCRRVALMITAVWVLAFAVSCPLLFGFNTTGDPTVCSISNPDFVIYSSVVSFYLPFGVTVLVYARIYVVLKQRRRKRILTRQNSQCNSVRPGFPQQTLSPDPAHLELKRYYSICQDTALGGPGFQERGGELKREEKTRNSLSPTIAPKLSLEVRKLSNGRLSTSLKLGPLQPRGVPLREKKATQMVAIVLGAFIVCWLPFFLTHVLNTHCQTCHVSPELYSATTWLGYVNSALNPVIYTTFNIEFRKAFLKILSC

[2] = DRUGMATRIX: GABAA, Flunitrazepam, Central radioligand binding (ligand: [3H] Flunitrazepam); format: cell membranes, Rattus norvegicus, Wistar, Brain, Membrane; details: Not Active = under 50% inhibition at 10 µM
Melanocortin receptor 5 = Melanocortin receptor 5 (Homo sapiens, UniProt P33032); format: cell membranes, HEK293, Membrane; details: hek293; further: in other assays of this panel Not Active means under 50% inhibition at 10 µM
Chain of Melanocortin receptor 5 (P33032 whole entry): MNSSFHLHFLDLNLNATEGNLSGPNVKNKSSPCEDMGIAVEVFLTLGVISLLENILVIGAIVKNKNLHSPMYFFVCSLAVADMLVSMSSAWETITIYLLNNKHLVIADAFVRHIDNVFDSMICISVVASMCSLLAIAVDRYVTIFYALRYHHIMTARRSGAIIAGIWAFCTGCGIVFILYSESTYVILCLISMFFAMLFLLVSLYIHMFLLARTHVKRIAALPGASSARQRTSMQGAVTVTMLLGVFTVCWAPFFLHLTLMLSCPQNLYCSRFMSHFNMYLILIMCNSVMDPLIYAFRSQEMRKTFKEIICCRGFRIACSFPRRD

[3] = DRUGMATRIX: Platelet-Derived Growth Factor (PDGF) radioligand binding (ligand: [125I] PDGF); format: cell-based; details: nih3t3; Not Active = under 50% inhibition at 10 µM
[4] = target: T1, Receptor-type tyrosine-protein phosphatase C (Homo sapiens, UniProt P08575); design: species or system Escherichia coli;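 further: inhibition of CD45 enzyme activity measured using DiFMUP as substrate; in other assays of this panel Not Active means under 50% inhibition at 10 µM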
T1 sequence (P08575 whole entry): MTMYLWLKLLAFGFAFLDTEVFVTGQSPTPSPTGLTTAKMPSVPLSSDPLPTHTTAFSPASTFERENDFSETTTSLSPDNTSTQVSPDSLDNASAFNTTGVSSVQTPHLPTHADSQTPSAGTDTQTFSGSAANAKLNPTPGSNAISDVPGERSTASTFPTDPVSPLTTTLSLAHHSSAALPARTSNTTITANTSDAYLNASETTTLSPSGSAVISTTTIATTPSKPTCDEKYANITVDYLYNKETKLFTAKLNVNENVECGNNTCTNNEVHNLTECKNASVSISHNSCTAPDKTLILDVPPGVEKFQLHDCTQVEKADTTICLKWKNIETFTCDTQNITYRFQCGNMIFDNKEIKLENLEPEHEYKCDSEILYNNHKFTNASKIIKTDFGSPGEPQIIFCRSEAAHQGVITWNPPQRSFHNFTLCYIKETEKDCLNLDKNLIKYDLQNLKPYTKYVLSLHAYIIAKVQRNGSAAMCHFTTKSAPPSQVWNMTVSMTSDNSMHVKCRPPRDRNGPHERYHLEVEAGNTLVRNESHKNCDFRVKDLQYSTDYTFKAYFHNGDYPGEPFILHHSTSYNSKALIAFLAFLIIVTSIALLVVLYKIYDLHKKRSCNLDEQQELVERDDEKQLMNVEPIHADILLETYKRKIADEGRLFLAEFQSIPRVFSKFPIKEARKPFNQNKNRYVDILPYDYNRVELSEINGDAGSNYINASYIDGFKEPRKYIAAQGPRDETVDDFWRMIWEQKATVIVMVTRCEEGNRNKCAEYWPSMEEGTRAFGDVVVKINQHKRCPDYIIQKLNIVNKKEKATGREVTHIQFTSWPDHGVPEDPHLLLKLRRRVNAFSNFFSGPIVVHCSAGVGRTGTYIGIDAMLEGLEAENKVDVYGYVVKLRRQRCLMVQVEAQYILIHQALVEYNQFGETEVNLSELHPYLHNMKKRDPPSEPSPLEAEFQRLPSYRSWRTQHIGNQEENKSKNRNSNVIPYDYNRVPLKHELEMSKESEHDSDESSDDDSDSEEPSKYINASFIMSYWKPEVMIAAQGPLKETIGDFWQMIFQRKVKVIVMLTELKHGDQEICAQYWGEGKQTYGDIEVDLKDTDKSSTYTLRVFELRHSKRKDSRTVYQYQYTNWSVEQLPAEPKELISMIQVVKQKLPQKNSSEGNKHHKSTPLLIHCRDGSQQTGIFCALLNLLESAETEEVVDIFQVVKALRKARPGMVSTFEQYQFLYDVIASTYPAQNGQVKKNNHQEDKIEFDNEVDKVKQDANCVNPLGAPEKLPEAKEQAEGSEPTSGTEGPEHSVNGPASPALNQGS

Chain of C-C chemokine receptor type 2 (P41597 whole entry): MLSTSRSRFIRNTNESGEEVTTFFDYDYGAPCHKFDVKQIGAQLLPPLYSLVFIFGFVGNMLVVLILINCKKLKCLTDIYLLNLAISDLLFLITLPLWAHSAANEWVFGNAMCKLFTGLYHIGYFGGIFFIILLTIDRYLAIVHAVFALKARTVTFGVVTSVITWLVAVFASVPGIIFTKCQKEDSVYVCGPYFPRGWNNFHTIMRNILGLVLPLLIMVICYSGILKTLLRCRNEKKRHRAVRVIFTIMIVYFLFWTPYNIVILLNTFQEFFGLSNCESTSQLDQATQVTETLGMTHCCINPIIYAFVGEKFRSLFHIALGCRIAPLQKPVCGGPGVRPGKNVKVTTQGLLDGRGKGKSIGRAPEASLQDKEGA

COc1ccc(Cl)cc1C(=O)NCCc1ccc(S(=O)(=O)NC(=O)NC2CCCCC2)cc1 [GLYBURIDE]
Not Active: IC50 [1] | IC50 (D(3) dopamine receptor; cho) | IC50 [2] | Ki [2] | IC50 (Melanocortin receptor 5) | IC50 [3] | Ki [3] | IC50 [4]

CHROMIC CHLORIDE
Not Active: IC50 [1] | Ki [1] | IC50 (D(3) dopamine receptor; cho) | Ki (D(3) dopamine receptor; cho) | IC50 [2] | Ki [2] | IC50 (Melanocortin receptor 5) | Ki (Melanocortin receptor 5) | IC50 [3] | Ki [3] | IC50 [4] | Ki [4]

CCN1C[C@]2(COC)[C@H](O)C[C@H](OC)[C@@]34[C@@H]5C[C@@]6(O)[C@H](OC(=O)c7ccccc7)[C@@H]5[C@@](OC(C)=O)([C@@H]([C@H](OC)[C@H]23)[C@@H]14)[C@@H](O)[C@@H]6OC [ACONITINE]
Not Active: IC50 [1] | IC50 (D(3) dopamine receptor; cho) | IC50 [2] | Ki [2] | IC50 (Melanocortin receptor 5) | IC50 [3] | Ki [3] | IC50 [4]

O=C(O)CCc1nc(-c2ccccc2)c(-c2ccccc2)o1 [OXAPROZIN]
Not Active: IC50 [1] | IC50 (D(3) dopamine receptor; cho) | IC50 [2] | Ki [2] | IC50 (Melanocortin receptor 5) | IC50 [3] | Ki [3] | IC50 [4]

Cc1ccnc2c1NC(=O)c1cccnc1N2C1CC1 [NEVIRAPINE]
Not Active: IC50 [1] | IC50 (D(3) dopamine receptor; cho) | IC50 [2] | Ki [2] | IC50 (Melanocortin receptor 5) | IC50 [3] | Ki [3] | IC50 [4]

Clc1cc(Cl)c(OCC#CI)cc1Cl [HALOPROGIN]
488 nM: IC50 (D(3) dopamine receptor; read-out: IC50)
166 nM: Ki (D(3) dopamine receptor; read-out: Ki)
Not Active: IC50 [1] | IC50 [2] | Ki [2] | IC50 (Melanocortin receptor 5) | IC50 [3] | Ki [3] | IC50 [4]

COc1ccccc1OCCNCC(O)COc1cccc2[nH]c3ccccc3c12 (stereo not drawn) [CARVEDILOL]
577 nM: IC50 (D(3) dopamine receptor; read-out: IC50)
Not Active: IC50 [1] | IC50 [2] | Ki [2] | IC50 (Melanocortin receptor 5) | IC50 [3] | Ki [3] | IC50 [4]
196 nM: Ki (D(3) dopamine receptor; read-out: Ki)

CCN1CCN(c2cc3c(cc2F)c(=O)c(C(=O)O)cn3C2CC2)CC1 [ENROFLOXACIN]
Not Active: IC50 [1] | IC50 (D(3) dopamine receptor; cho) | IC50 [2] | Ki [2] | IC50 (Melanocortin receptor 5) | IC50 [3] | Ki [3] | IC50 [4]

POVIDONE
Not Active: IC50 [1] | Ki [1] | IC50 (D(3) dopamine receptor; cho) | Ki (D(3) dopamine receptor; cho) | IC50 [2] | Ki [2] | IC50 (Melanocortin receptor 5) | Ki (Melanocortin receptor 5) | IC50 [3] | Ki [3] | IC50 [4] | Ki [4]

C=C(Cl)Cl [1,1-DICHLOROETHENE]
Not Active: IC50 [1] | IC50 (D(3) dopamine receptor; cho) | IC50 [2] | Ki [2] | IC50 (Melanocortin receptor 5) | IC50 [3] | Ki [3] | IC50 [4]

CC(=O)[C@]1(O)Cc2c(O)c3c(c(O)c2[C@@H](O[C@H]2C[C@H](N)[C@H](O)[C@H](C)O2)C1)C(=O)c1ccccc1C3=O [IDARUBICIN]
Not Active: IC50 [1] | IC50 (D(3) dopamine receptor; cho) | IC50 [2] | Ki [2] | IC50 (Melanocortin receptor 5) | IC50 [3] | Ki [3] | IC50 [4]

NC(=O)CN1CCCC1=O
Not Active: IC50 [1] | IC50 (D(3) dopamine receptor; cho) | IC50 [2] | Ki [2] | IC50 (Melanocortin receptor 5) | IC50 [3] | Ki [3] | IC50 [4]

CO[C@H]1O[C@@H]2O[C@@]3(C)CC[C@H]4[C@H](C)CC[C@@H]([C@H]1C)[C@@]24OO3
Not Active: IC50 [1] | IC50 (D(3) dopamine receptor; cho) | IC50 [2] | Ki [2] | IC50 (Melanocortin receptor 5) | IC50 [3] | Ki [3] | IC50 [4]

CC12CCC(CC1)C(C)(C)O2 [EUCALYPTOL]
Not Active: IC50 [1] | IC50 (D(3) dopamine receptor; cho) | IC50 [2] | Ki [2] | IC50 (Melanocortin receptor 5) | IC50 [3] | Ki [3] | IC50 [4]

C[N+](C)(C)CCOC(N)=O.[Cl-] [CARBACHOL]
Not Active: IC50 [1] | IC50 (D(3) dopamine receptor; cho) | IC50 [2] | Ki [2] | IC50 (Melanocortin receptor 5) | IC50 [3] | Ki [3] | IC50 [4]

NS(=O)(=O)c1cc(C(=O)O)c(NCc2ccco2)cc1Cl [FUROSEMIDE]
Not Active: IC50 [1] | IC50 (D(3) dopamine receptor; cho) | IC50 [2] | Ki [2] | IC50 (Melanocortin receptor 5) | IC50 [3] | Ki [3] | IC50 [4]

CC(C)NCC(O)COc1ccc(CC(N)=O)cc1 (stereo not drawn) [ATENOLOL]
Not Active: IC50 [1] | IC50 (D(3) dopamine receptor; cho) | IC50 [2] | Ki [2] | IC50 (Melanocortin receptor 5) | IC50 [3] | Ki [3] | IC50 [4]

Oc1ncnc2[nH]ncc12 [ALLOPURINOL]
Not Active: IC50 [1] | IC50 (D(3) dopamine receptor; cho) | IC50 [2] | Ki [2] | IC50 (Melanocortin receptor 5) | IC50 [3] | Ki [3] | IC50 [4]

NCC(CC(=O)O)c1ccc(Cl)cc1 (stereo not drawn) [BACLOFEN]
Not Active: IC50 [1] | IC50 (D(3) dopamine receptor; cho) | IC50 [2] | Ki [2] | IC50 (Melanocortin receptor 5) | IC50 [3] | Ki [3] | IC50 [4]

O=C1CN(/N=C/c2ccc([N+](=O)[O-])o2)C(=O)N1 [NITROFURANTOIN]
Not Active: IC50 [1] | IC50 (D(3) dopamine receptor; cho) | IC50 [2] | Ki [2] | IC50 (Melanocortin receptor 5) | IC50 [3] | Ki [3] | IC50 [4]

CC12CCC(CC1=O)C2(C)C (stereo not drawn) [CAMPHOR]
Not Active: IC50 [1] | IC50 (D(3) dopamine receptor; cho) | IC50 [2] | Ki [2] | IC50 (Melanocortin receptor 5) | IC50 [3] | Ki [3] | IC50 [4]

Cc1c(N)nc([C@H](CC(N)=O)NC[C@H](N)C(N)=O)nc1C(=O)N[C@H](C(=O)N[C@H](C)[C@@H](O)[C@H](C)C(=O)N[C@H](C(=O)NCCc1nc(-c2nc(C(=O)NCCC[S+](C)C)cs2)cs1)[C@@H](C)O)[C@@H](O[C@@H]1O[C@@H](CO)[C@@H](O)[C@H](O)[C@@H]1O[C@H]1O[C@H](CO)[C@@H](O)[C@H](OC(N)=O)[C@@H]1O)c1c[nH]cn1.[Br-] [BLEOMYCIN A2]
Not Active: IC50 [1] | IC50 (D(3) dopamine receptor; cho) | IC50 [2] | Ki [2] | IC50 (Melanocortin receptor 5) | IC50 [3] | Ki [3] | IC50 [4]

CN(Cc1cc(Br)cc(Br)c1N)C1CCCCC1 [BROMHEXINE]
Not Active: IC50 [1] | IC50 (D(3) dopamine receptor; cho) | IC50 [2] | Ki [2] | IC50 (Melanocortin receptor 5) | IC50 [3] | Ki [3] | IC50 [4]

COPPER(II) OXIDE
Not Active: IC50 [1] | Ki [1] | IC50 (D(3) dopamine receptor; cho) | Ki (D(3) dopamine receptor; cho) | IC50 [2] | Ki [2] | IC50 (Melanocortin receptor 5) | Ki (Melanocortin receptor 5) | IC50 [3] | Ki [3] | IC50 [4] | Ki [4]

CC(CN1c2ccccc2Sc2ccccc21)N(C)C (stereo not drawn) [PROMETHAZINE]
190 nM: Ki (D(3) dopamine receptor; read-out: Ki)
Not Active: IC50 [1] | IC50 [2] | Ki [2] | IC50 (Melanocortin receptor 5) | IC50 [3] | Ki [3] | IC50 [4]
559 nM: IC50 (D(3) dopamine receptor; read-out: IC50)

NC(N)=Nc1nc(CSCCC(N)=NS(N)(=O)=O)cs1 [FAMOTIDINE]
Not Active: IC50 [1] | IC50 (D(3) dopamine receptor; cho) | IC50 [2] | Ki [2] | IC50 (Melanocortin receptor 5) | IC50 [3] | Ki [3] | IC50 [4]
